PubChem BioAssay (NCI)
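Test compounds were applied to cells in 96-well plates for 48 hours at 5 doses. Definition used: TGI = concentration required for complete inhibition of growth.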

Tests used:
Assay in all cases: inhibition of tumour cell growth, NCI panel, 48 h
786-0 renal = test system: 786-0 renal
A498 renal = test system: A498 renal
A549 NSCLC = test system: A549 NSCLC
ACHN renal = test system: ACHN renal
CAKI-1 renal = test system: CAKI-1 renal
COLO 205 colon = test system: COLO 205 colon
DLD-1 colon = test system: DLD-1 colon
DMS 114 small cell lung = test system: DMS 114 small cell lung
DMS 273 small cell lung = test system: DMS 273 small cell lung
EKVX NSCLC = test system: EKVX NSCLC
HCC-2998 colon = test system: HCC-2998 colon
HCT-116 colon = test system: HCT-116 colon
HCT-15 colon = test system: HCT-15 colon
HOP-18 NSCLC = test system: HOP-18 NSCLC
HOP-62 NSCLC = test system: HOP-62 NSCLC
HOP-92 NSCLC = test system: HOP-92 NSCLC
HT29 colon = test system: HT29 colon
IGROV1 ovarian = test system: IGROV1 ovarian
K-562 leukemia = test system: K-562 leukemia
KM12 colon = test system: KM12 colon
LOX IMVI melanoma = test system: LOX IMVI melanoma
M14 melanoma = test system: M14 melanoma
M19-MEL melanoma = test system: M19-MEL melanoma
MALME-3M melanoma = test system: MALME-3M melanoma
MOLT-4 leukemia = test system: MOLT-4 leukemia
NCI-H226 lung = test system: NCI-H226 lung
NCI-H23 lung = test system: NCI-H23 lung
NCI-H460 lung = test system: NCI-H460 lung
OVCAR-3 ovarian = test system: OVCAR-3 ovarian
OVCAR-4 ovarian = test system: OVCAR-4 ovarian
OVCAR-5 ovarian = test system: OVCAR-5 ovarian
OVCAR-8 ovarian = test system: OVCAR-8 ovarian
RPMI-8226 leukemia = test system: RPMI-8226 leukemia
RXF 393 renal = test system: RXF 393 renal
RXF-631 renal = test system: RXF-631 renal
SF-268 CNS = test system: SF-268 CNS
SF-295 CNS = test system: SF-295 CNS
SF-539 CNS = test system: SF-539 CNS
SK-MEL-2 melanoma = test system: SK-MEL-2 melanoma
SK-MEL-28 melanoma = test system: SK-MEL-28 melanoma
SK-MEL-5 melanoma = test system: SK-MEL-5 melanoma
SK-OV-3 ovarian = test system: SK-OV-3 ovarian
SN12C renal = test system: SN12C renal
SNB-19 CNS = test system: SNB-19 CNS
SNB-75 CNS = test system: SNB-75 CNS
SNB-78 CNS = test system: SNB-78 CNS
SW-620 colon = test system: SW-620 colon
TK-10 renal = test system: TK-10 renal
U251 CNS = test system: U251 CNS
UACC-257 melanoma = test system: UACC-257 melanoma
UACC-62 melanoma = test system: UACC-62 melanoma
UO-31 renal = test system: UO-31 renal

Measured: TGI

CC(C)(C)c1ccc2c(c1)S(=O)(=O)Nc1cccc(c1)NS(=O)(=O)c1cc(C(C)(C)C)ccc1OCCOCCO2
> 100 µM: 786-0 renal | A498 renal | A549 NSCLC | ACHN renal | CAKI-1 renal | COLO 205 colon | DLD-1 colon | DMS 114 small cell lung | DMS 273 small cell lung | EKVX NSCLC | HCC-2998 colon | HCT-116 colon | HCT-15 colon | HOP-18 NSCLC | HOP-62 NSCLC | HOP-92 NSCLC | HT29 colon | IGROV1 ovarian | K-562 leukemia | KM12 colon | LOX IMVI melanoma | M14 melanoma | M19-MEL melanoma | MALME-3M melanoma | MOLT-4 leukemia | NCI-H226 lung | NCI-H23 lung | NCI-H460 lung | OVCAR-3 ovarian | OVCAR-4 ovarian | OVCAR-5 ovarian | OVCAR-8 ovarian | RPMI-8226 leukemia | RXF 393 renal | RXF-631 renal | SF-268 CNS | SF-295 CNS | SF-539 CNS | SK-MEL-2 melanoma | SK-MEL-28 melanoma | SK-MEL-5 melanoma | SK-OV-3 ovarian | SN12C renal | SNB-19 CNS | SNB-75 CNS | SNB-78 CNS | SW-620 colon | TK-10 renal | U251 CNS | UACC-257 melanoma | UACC-62 melanoma | UO-31 renal
